From patent US11518764B2, “Substituted heteroaryls as inhibitors of the BCL6 BTB domain protein-protein interaction” (Ontario Institute for Cancer Research (OICR), priority 2018, dated 2022)

Key:
[1] = tested on: BCL6 reporter construct (3xBCL6-TK-Luc) in SuDHL4 cells; experiment: Cell-based luciferase assay; details: Homo sapiens, SU-DHL-4, 48 h, read-out: Luciferase-Assay EC50, uM), SuDHL4-3xBCL6-TK-Luc cells, two days, high dose 10 uM
Outline: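 SuDHL4 cells stably carrying a 3×BCL6-site TK-promoter firefly luciferase reporter, seeded at 15,000 cells/well, were dosed over a 10-point range (top 10 uM) and grown two days at 37 °C, 5% CO2. Luminescence then read after adding neolite reagent at room temperature.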

Karpas422 cells = experiment: Tumor cell growth inhibition assay; format: cell-based; details: Homo sapiens, KARPAS-422, 144 h, read-out: Tumor Growth Inhibition in Karpas-422 (IC50, uM), Karpas422 cells, six days, ATPlite
Outline: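 Growth inhibition was measured by ATPlite luminescence after six days of culture at 37° C. in 5% CO2. Karpas422 cells were seeded at 2,000 per well in Alpha-MEM plus 10% FBS. Compounds were given as a 10-point concentration series with a highest dose of 5 uM.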

BCL6 BTB domain = BCL6 BTB domain (Homo sapiens (Human), UniProt P41182); experiment: Surface plasmon resonance (SPR) assay; format: binding; details: BCL6 BTB domain captured on SA chip, single cycle kinetics

| Compound | EC50 [1] [µM] | IC50 (Karpas422 cells) [µM] | Kd (BCL6 BTB domain) [nM] |
| --- | --- | --- | --- |
| C[C@H]1CN(C)CCN1c1cc(NC(=O)Cn2cc(-c3cc(F)c(O)c(C(N)=O)c3)c3c(=O)n(CC#Cc4cnn(C)c4)cnc32)c(Cl)c(F)n1 [Compound I-432, (S)-5-(7-(2-((3-chloro-6-(2,4-dimethylpiperazin-1-yl)-2-fluoropyridin-4-yl)amino)-2-oxoethyl)-3-(3-(1-methyl-1H-pyrazol-4-yl)prop-2-yn-1-yl)-4-oxo-4,7-dihydro-3H-pyrrolo[2,3-d]pyrimidin-5-yl)-3-fluoro-2-hydroxybenzamide] | 0.0347 | 0.0181 | 2.39 |
| CN(C)C1CN(c2cc(NC(=O)Cn3cc(-c4cc(F)c(O)c(C(N)=O)c4)c4c(=O)n(C)cnc43)c(Cl)cn2)C1 [Compound I-433] | 0.548 | 0.201 | 8.42 |
| Cc1nc2c(c(-c3cc(Cl)c(O)c(C(N)=O)c3)cn2CC(=O)Nc2cc(N3CCN(C4COC4)C[C@@H]3C)nc(F)c2Cl)c(=O)n1C [Compound I-434] | 0.0381 | 0.05 | 5.45 |
| CCN1CCN(c2cc(NC(=O)Cn3cc(-c4cc(C(N)=O)c(O)c(F)c4F)c4c(=O)n(C)c(C)nc43)c(Cl)cn2)[C@@H](C)C1 [Compound I-435] | 0.847 | 0.415 | 48.9 |
| Cn1cnc2c(c(-c3cc(F)c(O)c(C(N)=O)c3)cn2CC(=O)Nc2cc(N3C4CCC3COC4)ncc2Cl)c1=O [Compound I-436] | 0.803 | 0.401 | 14.1 |
| C[C@H]1CN(C2COC2)CCN1c1cc(NC(=O)Cn2cc(-c3cc(C(N)=O)c(O)c(F)c3F)c3c(=O)n(C)cnc32)c(Cl)c(F)n1 [Compound I-437] | 0.231 | 0.124 | 11.3 |
| C[C@H]1CN(C2COC2)CCN1c1cc(NC(=O)Cn2cc(-c3cc(F)c(O)c(C(N)=O)c3)c3c(=O)n(C)cnc32)c(Cl)c(F)n1 [Compound I-438] | 0.0686 | 0.0508 | 2.5 |
| CO[C@H]1CC(c2cc(NC(=O)Cn3cc(-c4cc(Cl)c(O)c(C(N)=O)c4)c4c(=O)n(C)cnc43)c(Cl)c(F)n2)C[C@H]1F (stereo partly drawn) [Compound I-439] | 0.267 | 0.28 | 32.9 |
| CO[C@@H]1CC(c2cc(NC(=O)Cn3cc(-c4cc(Cl)c(O)c(C(N)=O)c4)c4c(=O)n(C)cnc43)c(Cl)c(F)n2)C[C@@H]1F (stereo partly drawn) [Compound I-440] | 0.286 | 0.291 | 15.8 |
| CO[C@H]1CN(c2cc(NC(=O)Cn3cc(-c4cc(C(N)=O)c(O)c(F)c4F)c4c(=O)n(C)cnc43)c(Cl)c(F)n2)C[C@H]1F [Compound I-441] | 0.324 | 0.338 | 22.3 |
| CO[C@@H]1CN(c2cc(NC(=O)Cn3cc(-c4cc(C(N)=O)c(O)c(F)c4F)c4c(=O)n(C)cnc43)c(Cl)c(F)n2)C[C@@H]1F [Compound I-442] | 0.386 | 0.266 | 21.8 |
| C[C@H]1CN(CC2CC2)CCN1c1cc(NC(=O)Cn2cc(-c3cc(C(N)=O)c(O)c(F)c3F)c3c(=O)n(C)cnc32)c(Cl)c(F)n1 [Compound I-443] | 0.285 | 0.149 | 18.6 |
| C[C@H]1CN(CC2CC2)CCN1c1cc(NC(=O)Cn2cc(-c3cc(Cl)c(O)c(C(N)=O)c3)c3c(=O)n(C)cnc32)c(Cl)c(F)n1 [Compound I-444] | 0.239 | 0.104 | 19.8 |
| C[C@H]1CN(CC2CC2)CCN1c1cc(NC(=O)Cn2cc(-c3cc(F)c(O)c(C(N)=O)c3)c3c(=O)n(C)cnc32)c(Cl)c(F)n1 [Compound I-445] | 0.0854 | 0.0622 | 7.32 |
| COCCN1CCN(c2cc(NC(=O)Cn3cc(-c4cc(C(N)=O)c(O)c(F)c4F)c4c(=O)n(C)cnc43)c(Cl)c(F)n2)[C@@H](C)C1 [Compound I-446] | 0.157 | 0.137 | 7.29 |
| COCCN1CCN(c2cc(NC(=O)Cn3cc(-c4cc(Cl)c(O)c(C(N)=O)c4)c4c(=O)n(C)cnc43)c(Cl)c(F)n2)[C@@H](C)C1 [Compound I-447] | 0.113 | 0.0709 | 9.02 |
| COCCN1CCN(c2cc(NC(=O)Cn3cc(-c4cc(F)c(O)c(C(N)=O)c4)c4c(=O)n(C)cnc43)c(Cl)c(F)n2)[C@@H](C)C1 [Compound I-448] | 0.0483 | 0.0446 | 3.42 |

| Compound | EC50 [1] [µM] | IC50 (Karpas422 cells) [µM] | Kd (BCL6 BTB domain) [nM] |
| --- | --- | --- | --- |
| CN1CC2CC(C1)N2c1cc(NC(=O)Cn2cc(-c3cc(Cl)c(O)c(C(N)=O)c3)c3c(=O)n(C)cnc32)c(Cl)cn1 [Compound I-449] | 2.48 | 1.97 | 60.3 |
| C[C@H]1CN(CCO)CCN1c1cc(NC(=O)Cn2cc(-c3cc(C(N)=O)c(O)c(F)c3F)c3c(=O)n(C)cnc32)c(Cl)cn1 [Compound I-452, (S)-5-(7-(2-((5-chloro-2-(4-(2-hydroxyethyl)-2-methylpiperazin-1-yl)pyridin-4-yl)amino)-2-oxoethyl)-3-methyl-4-oxo-4,7-dihydro-3H-pyrrolo[2,3-d]pyrimidin-5-yl)-3,4-difluoro-2-hydroxybenzamide] | 2.6 | 1.52 | 13.6 |
| C[C@H]1CN(CCC(F)(F)F)CCN1c1cc(NC(=O)Cn2cc(-c3cc(C(N)=O)c(O)c(F)c3F)c3c(=O)n(C)cnc32)c(Cl)cn1 [Compound I-453] | 0.41 | 0.16 | 54.3 |
| C[C@@H](C1CC1)N1CCN(c2cc(NC(=O)Cn3cc(-c4cc(C(N)=O)c(O)c(F)c4F)c4c(=O)n(C)cnc43)c(Cl)c(F)n2)[C@@H](C)C1 [Compound I-454] | 0.306 | 0.244 | 13.5 |
| C[C@H](C1CC1)N1CCN(c2cc(NC(=O)Cn3cc(-c4cc(C(N)=O)c(O)c(F)c4F)c4c(=O)n(C)cnc43)c(Cl)c(F)n2)[C@@H](C)C1 [Compound I-455] | 0.307 | 0.204 | 11.2 |
| CC1N=CC(C#CCn2cnc3c(c(-c4cc(C(N)=O)c(O)c(F)c4F)cn3CC(=O)Nc3cc(N4CCN(C)C[C@@H]4C)nc(F)c3Cl)c2=O)=N1 (stereo partly drawn) [Compound I-456] | 0.0858 | 0.0554 | 1.87 |
| C[C@H]1COCCN1c1cc(NC(=O)Cn2cc(-c3cc(F)c(O)c(C(N)=O)c3)c3c(=O)n(CC#Cc4cnn(C)c4)cnc32)c(Cl)cn1 [Compound I-457] | 0.328 | 0.183 | 13.1 |
| CC(C)CN1CCN(c2cc(NC(=O)Cn3cc(-c4cc(C(N)=O)c(O)c(F)c4F)c4c(=O)n(C)cnc43)c(Cl)c(F)n2)[C@@H](C)C1 [Compound I-458] | 0.963 | 3.68 | 55.8 |
| C[C@H]1CN(CC(O)CCO)CCN1c1cc(NC(=O)Cn2cc(-c3cc(C(N)=O)c(O)c(F)c3F)c3c(=O)n(C)cnc32)c(Cl)c(F)n1 (stereo partly drawn) [Compound I-459, 5-(7-(2-((3-chloro-6-((2S)-4-(2,4-dihydroxybutyl)-2-methylpiperazin-1-yl)-2-fluoropyridin-4-yl)amino)-2-oxoethyl)-3-methyl-4-oxo-4,7-dihydro-3H-pyrrolo[2,3-d]pyrimidin-5-yl)-3,4-difluoro-2-hydroxybenzamide] | 0.945 | 1.06 | 6.55 |
| C[C@H]1CN(CC2CCO2)CCN1c1cc(NC(=O)Cn2cc(-c3cc(C(N)=O)c(O)c(F)c3F)c3c(=O)n(C)cnc32)c(Cl)c(F)n1 (stereo partly drawn) [Compound I-460, 5-(7-(2-((3-chloro-2-fluoro-6-((2S)-2-methyl-4-(oxetan-2-ylmethyl)piperazin-1-yl)pyridin-4-yl)amino)-2-oxoethyl)-3-methyl-4-oxo-4,7-dihydro-3H-pyrrolo[2,3-d]pyrimidin-5-yl)-3,4-difluoro-2-hydroxybenzamide] | 0.102 | 0.223 | 9.87 |
| CO[C@@H](C)CN1CCN(c2cc(NC(=O)Cn3cc(-c4cc(C(N)=O)c(O)c(F)c4F)c4c(=O)n(C)cnc43)c(Cl)c(F)n2)[C@@H](C)C1 [Compound I-462] | 0.184 | 0.289 | 50.3 |
| C[C@H]1CN(CC(CO)CO)CCN1c1cc(NC(=O)Cn2cc(-c3cc(C(N)=O)c(O)c(F)c3F)c3c(=O)n(C)cnc32)c(Cl)c(F)n1 [Compound I-463, (S)-5-(7-(2-((3-chloro-2-fluoro-6-(4-(3-hydroxy-2-(hydroxymethyl)propyl)-2-methylpiperazin-1-yl)pyridin-4-yl)amino)-2-oxoethyl)-3-methyl-4-oxo-4,7-dihydro-3H-pyrrolo[2,3-d]pyrimidin-5-yl)-3,4-difluoro-2-hydroxybenzamide] | 3.53 | 1.28 | 8.56 |
| C[C@H]1CN(CCC(F)(F)F)CCN1c1cc(NC(=O)Cn2cc(-c3cc(C(N)=O)c(O)c(F)c3F)c3c(=O)n(C)cnc32)c(Cl)c(F)n1 [Compound I-464] | 0.213 | 0.421 | 83.8 |
| Cn1cnc2c(c(-c3cc(C(N)=O)c(O)c(F)c3F)cn2CC(=O)Nc2cc(N3C4CCC3CN(CC(F)(F)F)C4)ncc2Cl)c1=O [Compound I-465] | 4.47 | 1.17 | 84.9 |
| Cn1cnc2c(c(-c3cc(Cl)c(O)c(C(N)=O)c3)cn2CC(=O)Nc2cc(N3C4CCC3CN(CC(F)(F)F)C4)ncc2Cl)c1=O [Compound I-466] | 3.81 | 0.773 | 519 |
| Cn1cnc2c(c(-c3cc(F)c(O)c(C(N)=O)c3)cn2CC(=O)Nc2cc(N3C4CCC3CN(CC(F)(F)F)C4)ncc2Cl)c1=O [Compound I-467] | 1.23 | 0.496 | 175 |
